Laboratory results from patent US8916604B2, “Compositions and methods for epigenetic modification of nucleic acid sequences” (Rutgers, The State University of New Jersey, priority 2011, dated 2014).
Like-named read-outs stand apart in the source and are kept apart here. One block for each compound: values may come before it.

Tests used:
[1] = system: HepG2-C8 cells; assay: MTS cell viability assay; type: cell-based, human
Method: The stably transfected single clone HepG2-ARE-C8 (HepG2-C8) cell line has been established previously in our laboratory using the […]-luciferase reporter gene. The cells were maintained in Dulbecco's modified Eagle medium supplemented with 10% fetal bovine serum (FBS), 1.17 g/l sodium bicarbonate, and 100 unit/ml penicillin, 100 μg/ml streptomycin at 37° C. in a humidified incubator with 5% CO2. […] MTS] (Promega, Madison, Wis.). […] The cells were then treated with MTS for 1 h at 37° C. Absorbance of the formazan product was read at 490 nm with a μQuant Biomolecular Spectrophotometer from Bio-Tek Instruments Inc. (Winooski, Vt.). Independent control studies were conducted using 1% and 10% FBS medium.

[2] = system: antioxidant response element (ARE); assay: ARE-luciferase reporter assay with combination index calculation; type: cell-based, human
Method: The stably transfected single clone HepG2-ARE-C8 (HepG2-C8) cell line has been established previously in our laboratory using the […]-luciferase reporter gene. The cells were maintained in Dulbecco's modified Eagle medium supplemented with 10% fetal bovine serum (FBS), 1.17 g/l sodium bicarbonate, and 100 unit/ml penicillin, 100 μg/ml streptomycin at 37° C. in a humidified incubator with 5% CO2. The HepG2-C8 cells were cultured in 12-well plates and each well contained 1 million cells in 1 ml of 10% FRS medium. The cells were treated with compounds for 24 h. The luciferase activity was determined using a luciferase kit from Promega (Madison, USA) according to the manufacturer's instructions. Briefly, after treatments for 24 h, the cells were washed twice with ice-cold phosphate buffered-saline (PBS, pH 7.4) and harvested in 1× reporter lysis buffer and […]. After centrifugation at 4° C., 12000 rpm for 5 min, a 10 μl aliquot of the supernatant was assayed for luciferase activity with a Sirius luminometer (Berthold Detection System GmbH, Pforzheim, Germany). The luciferase activity was normalized against protein concentration, determined by a BCA protein assay (Pierce, Rockford, USA), and expressed as the fold induction over the luciferase activity of control vehicle-treated cells. At least two to three independent studies were conducted in triplicates. To determine the synergistic effect between the combination of two different compounds, the combination index (CI) was calculated with the following formula: […] This approach is based on the Loewe additivity model and although the exact mechanism of interaction may be unknown, this model is one of the most commonly used reference models for evaluating potential drug-drug interactions Lee et al., J Biopharm Stat 2007; 17: 461-480).

[3] = oral; cited from earlier work
[4] = system: HO-1; assay: qPCR mRNA expression in HepG2-C8 cells; type: cell-based, human; conditions: 25 μM, 6 h, vs 0.1% DMSO
Method: (§1) The cells were treated similarly to the NITS and ARE-luciferase assays described above using 10% FBS medium. The incubation of the compounds with the cells was terminated 6 h later. The mRNA expression was evaluated utilizing a quantitative real-time polymerase chain reaction (qPCR). An RNeasy kit from Qiagen was used for RNA extraction (Valencia, Calif.). The total RNA was reverse-transcribed to cDNA by TaqMan Reverse Transcription Reagents (Applied Biosystems Inc, Foster City, Calif.). SYBR Green (Applied Biosystems Inc, Foster City, Calif.) fluorescence was used to measure the product of qPCR. Glyceraldehyde 3-phosphate dehydrogenase (GAPDH) was used as the housekeeping gene, and the Applied Biosystems 7900HT Fast Real-Time PCR System (Applied Biosystems Inc, Foster City, Calif.) was used as described previously (Saw et al., Biochem Pharmacol 2010; 79: 421-430) to detect quantitatively the induction of mRNA of Nrf2, phase II DME GSTm2, NAD (P)H dehydrogenase, quinone 1 (NQO1), UGT family, polypeptide A1 (UGT1A1) and antioxidant enzymes HO-1, superoxide dismutase 1 (SOD1). The primer pairs were designed using the Primer Quest Oligo Design and Analysis Tool by Integrated DNA Technologies Inc. (Coralville, Iowa, USA) and the sequences are listed in Table 4. At least four wells of each treatment were performed and duplicate samples were carried out for each treatment.

[5] = system: Nrf2; assay: qPCR mRNA expression in HepG2-C8 cells; type: cell-based, human; conditions: 25 μM, 6 h, vs 0.1% DMSO
Method: as §1

[6] = system: NQO1; assay: qPCR mRNA expression in HepG2-C8 cells; type: cell-based, human; conditions: 6 h
Method: as §1

[7] = system: first 5 CpGs in the promoter region of Nrf2 gene; conditions: TRAMP C1 cells, other DNA de-methylating agents; cited from earlier work
[8] = Homo sapiens, HepG2C8, 1% FBS medium, read-out: cell viability inhibitory concentrations (IC50)

IC50 ([1]; 1% FBS medium, read-out: cell viability inhibitory concentrations (IC50)): 135 µM | IC50 ([1]; 10% FBS medium (data not shown), read-out: cell viability IC50): 300 µM
Compound: OCc1c[nH]c2ccccc12 [I3C, indole-3-carbinol]
induction of ARE-luciferase ([2]; doses lower than 25 μM, 10% FBS medium (data not shown)): no significant induction | tolerability [3]: well tolerated | HO-1 mRNA induction over control [4]: did not show significant induction | Nrf2 mRNA induction over control [5]: did not show significant induction

Compound: S=C=NCCc1ccccc1 [PEITC, phenethyl isothiocyanate]
IC50 [1, 8]: ~20 µM | NQO1 gene expression ([6]; 1 μM): greatly induced

IC50 [1, 8]: ~20 µM
Compound: C[S+]([O-])CCCCN=C=S (stereo not drawn) [SFN, sulforaphane]
time of peak induction of ARE-luciferase activity ([2]; time course study, after treatment): 18 h | NQO1 gene expression ([6]; any concentration): not significantly induced

Compound: COc1cc(/C=C/C(=O)CC(=O)/C=C/c2ccc(O)c(OC)c2)ccc1O [curcumin]
CpG methylation of the first 5 CpGs of the promoter of Nrf2 gene [7]: decreased CpG methylation
